In patent US20230285570A1, “THERAPEUTICALLY USEFUL CURE-PRO MOLECULES FOR E3 LIGASE MEDIATED DEGRADATION OF PROTEINS, AND METHODS OF MAKING AND USING THEM” (CORNELL UNIVERSITY, priority 2020, published 2023):
“Also recorded” adds a separate entry of the source.

Legend:
Assay type in all cases: cell-based
[1] = tested on: Molm-13 cells; assay: CellTiter-Glo cell viability, Molm-13 cells
Experimental: CellTiter-Glo® 2.0 Cell Viability Assay (Promega) was carried out following the manufacturer's recommendations. Cells were seeded at a density of 1000 cells/well in a white 96 well plates (Corning, #3917) in a total volume of 100 μl with respective monomers, combinations of BRD ligands together with E3 ligase ligands or vehicle control treatment. After a 72 h incubation, 100 ul of the CellTiter-Glo® substrate was added per well and luminescence was read on a Spectramax M5 (Molecular Devices). Dose-response curves were generated using Graphpad Prism software.
Molm-13 cells (1×10^4) were treated for 24 (FIG. 77A) or 72 (FIG. 77B) hours were treated in white 96 well plates with the compounds (10 nM-10 μM solubilized in DMSO). After indicated times cell viability was assessed using the CellTiter-Glo® Luminescent Cell Viability Assay (Promega) and the signal detected on a SpectraMax M5 (Molecular Devices).

[2] = tested on: caspase 3/7; assay: Caspase-Glo 3/7 assay, Molm-13 cells
Experimental: (§1) Caspase-glo® assay (Promega) was conducted following the manufacturer's recommendations. Cells were seeded at a density of 5000 cells/well in a white 96 well plates (Corning, #3917) in a total volume of 100 μl with respective monomers, combinations of BRD ligands together with E3 ligase ligands or vehicle control treatment. After a 24 h incubation, 100 μl of the […] substrate was added per well and luminescence was read on a Spectramax M5 (Molecular Devices).
(§2) Molm-13 (FIG. 76A) or Namalwa (FIG. 76B) cells (5×10^4) were treated for 24 hours with the compounds solubilized in DMSO in white 96 well plates (10 nM-10 μM solubilized in DMSO). FIG. 76 is a bar graph depiction of fold increase of apoptosis assessed via caspase 3/7 activity using the Caspase-Glo assay (Promega) described above.

[3] = tested on: caspase 3/7; assay: Caspase-Glo 3/7 assay, Namalwa cells; details: 24 h
Experimental: as §1
Namalwa cells (5×10^4) were treated for 24 hours with the compounds solubilized in DMSO. FIG. 57 is a bar graph depiction of fold increase of apoptosis assessed via caspase 3/7 activity using the Caspase-Glo assay (Promega) described above.
as §2

[4] = target: T1, BRD4 (Homo sapiens, UniProt O60885); assay: Summary of BRD4 degradation by CURE-PRO pairs, estimated from Western Blot or WES; set-up: endogenous in cells; details: Table 3, aryl-boronic acid BRD4 ligand + 8305
How it was run: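 Degradation read-out from immunoblot with ECL, or WES capillary electrophoresis with HRP detection, of RIPA lysates. Cells (Namalwa, Ramos, HeLa, MCF7, HT29 or HCT116) were exposed to DMSO-solubilized compounds for 24 h; a check mark marks 30% to 70% or higher degradation.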

[5] = target: T1, BRD4; assay: CURE-PRO-mediated BRD4 degradation in MCF7 cells, Western blot; set-up: endogenous in cells
Experimental: Namalwa, Ramosm HeLa, MCF7, or HT29 HCT116 cells (2.5-3×10^6) were treated for 24 hours with the indicated compounds solubilized in DMSO. The cells were washed in ice-cold PBS and were then lysed in RIPA lysis buffer (150 mM NaCl, 5 mM EDTA, 1% NP-40, 0.5% sodium deoxycholate, 0.1% SDS, 50 mM Tris, pH 8.0.) with Roche protease inhibitor complete cocktail and phosphatase inhibitors (10 mM sodium fluoride, 10 mM sodium pyrophosphate, 1 mM sodium orthovanadate and 20 mM β-glycerophosphate). The total protein concentrations were determined by Bradford Protein Assay (Pierce) and 10-20 μg of protein was loaded onto 4-15% Tris-Glycine gradient gels (Biorad). After standard gel electrophoresis, the separated proteins were transferred to PVDF membrane by wet transfer. The immunoblots were then blocked for 1 hour in 5% skim milk in TBST or 5% BSA in TBST, according to manufacturer's instructions, before an overnight incubation at 4° C. with indicated antibodies and membranes. Membranes were then incubated with the appropriate horseradish peroxidase-conjugated secondary antibodies (1:5,000 dilution) for 1 h at room temperature and the bands were visualized using the Clarity Max Western ECL Substrate (Biorad) and the ChemiDoc Imaging System (Biorad). Signal was detected with ECL Western Blotting Substrate (Pierce) and X-ray film processed with a Konica SRX-101 X-ray film processor or captured by Bio-Rad's Chemidoc Imaging system.
MCF7 cells (3×10^6) were treated for 24 h with the compounds solubilized in DMSO. Compounds were added at 100 nM-10 μM. Standardized protein samples were electrophoresed and imaged as described in the Immunoblotting section above. FIG. 69 depicts the CURE-PRO-mediated BRD4 degradation for the BRD-E9 monomer and VHL ligands 8305 combined in a 1:1 ratio, and FIG. 70 depicts the CURE-PRO-mediated BRD4 degradation for the BRD-E20 monomer and 8305.
MCF7 cells (3×10^6) were treated for 24 h with the compounds solubilized in DMSO. Compounds were added at 1 μM-10 μM. Standardized protein samples were electrophoresed and imaged as described in the Immunoblotting section above. FIG. 71 depicts the CURE-PRO-mediated BRD4 degradation for the BRD-E50 monomer and VHL ligands 8305 and 8304 combined in a 1:1 ratio.

[6] = target: T1, BRD4; assay: CURE-PRO-mediated BRD4 degradation in MCF7 cells, WES (ProteinSimple); set-up: endogenous in cells
Experimental: WES Simple analysis was performed on WES system (ProteinSimple-Biotechne) according to the manufacturer's instructions. Total protein concentrations of cell lysates were determined by the Pierce BCA kit (Thermo Fisher). 3 μL of 0.3 μg/μL of the protein lysate was loaded onto a 12- to 230-kDa WES assay plate (ProteinSimple) where 300 nL sample was withdrawn through a capillary, subjected to electrophoretic separation of proteins by size, and followed by the simultaneous, HRP-based detection of proteins using the Anti-Rabbit Detection Module (Proteinsimple: #DM-001). The electropherograms were checked then the automatic peak detection was manually corrected if it was required.
MCF7 cells (3×10^6) were treated for 4-24 hours continually (FIG. 72), or treated for 4 h, washed and incubated for a further 4-24 h with the compounds solubilized in DMSO. Compounds were added at 10 μM each. Cells were washed, lysed, and clarified by centrifugation. The total protein concentration was quantified by the BCA method (ThermoFisher Sciences). Standardized protein samples were electrophoresed and imaged as described in the WES Proteinsimple section above. FIG. 69 depicts the CURE-PRO-mediated BRD4 degradation for the BRD-E50 monomer, and VHL ligand, 8305.
MCF7 cells (3×10^6) were treated for 24 hours with the compounds solubilized in DMSO. CURE-PRO monomers were added at 10 μM each and the proteasomal inhibitors at 1 μM. Standardized protein samples were electrophoresed and imaged as described in the WES Proteinsimple section above. FIGS. 73 and 75 depicts the dependence of the proteasome for CURE-PRO-mediated BRD4 degradation.
MCF7 cells (3×10^6) were treated for 24 hours with the compounds solubilized in DMSO. CURE-PRO monomers were added at 10 μM. FIG. 74 depicts the CURE-PRO-mediated BRD4 degradation for the BRD-E50 monomer, and VHL ligand, 8305 combined in a 1:1 ratio after 24 h.

[7] = tested on: HCT116 cells; assay: MTT toxicity of E3 ligase CURE-PRO monomers, HCT116 cells; details: monomer alone, HCT116, 10 nM-30 μM, 24 h
Experimental: CURE-PRO ligands for the E3 ubiquitin ligases were assessed for toxicity by MTT assays as described above. CURE-PRO monomers (10 nM-30 μM) were solubilized in DMSO and added in triplicate to cells (1×10^5 cells/well) seeded in 96 well plates on the previous day. HCT116 (FIG. 105A), MCF7 (FIG. 105B), and HT29 cells (FIG. 105C) were treated with the CURE-PRO monomers for 24 h.

[8] = single monomer alone, MCF7, 10 μM

Row | Structure (SMILES) | loss of cell viability versus monomers alone ([1]; co-dosed 1:1 with VHL ligand 8305, Molm-13, 24 h and 72 h, 10 nM-10 μM) | cell viability ([1]; co-treated with VHL298, Molm-13, 24 h and 72 h) | caspase 3/7 activation ([2]; 1:1 with VHL ligand 8305, Molm-13, 24 h, 10 nM-10 μM) | caspase 3/7 activation ([2]; co-treated with VHL298, Molm-13, 24 h) | caspase 3/7 activation ([3]; 1:1 with VHL ligand 8305, Namalwa, 10 nM-10 μM) | caspase 3/7 activation ([3]; co-treated with VHL298, Namalwa) | Degradation of BRD4, combination with VHL ligand 8305 [4] | BRD4 degradation ([5]; 1:1 with VHL ligand 8304, MCF7, 24 h, 1 μM-10 μM) | BRD4 degradation ([5]; 1:1 with VHL ligand 8305, MCF7, 24 h, 100 nM-10 μM) | BRD4 degradation ([6]; 1:1 with VHL ligand 8305, MCF7, 10 μM each, 4-24 h) | BRD4 degradation ([6]; co-incubated with VHL ligand 8304, MCF7, 10 μM each) | BRD4 degradation [6, 8] | BRD4 degradation after VHL298 pre-incubation ([6]; with 8305, 10 μM each, VHL298 preincubated at equimolar concentration, MCF7) | loss of viability (MTT) [7]
1 | CCNC(=O)C[C@@H]1N=C(c2ccc(Cl)cc2)c2cc(B(O)O)ccc2-n2c(C)nnc21 [BRD-E50, ((4S)-6-(4-chlorophenyl)-4-(2-(ethylamino)-2-oxoethyl)-1-methyl-4H-benzo[f][1,2,4]triazolo[4,3-a][1,4]diazepin-8-yl)boronic acid] | marked loss in cell viability when compared to monomer treatment alone; also recorded: a greater loss of cell viability | decreases levels of cell viability to similar levels of BRD-E50 treatment alone | demonstrates activation of caspase 3/7; also recorded: marked caspase activation | does not increase caspase activity | demonstrates activation of caspase 3/7; also recorded: marked caspase activation | does not increase caspase activity | √ (A black check mark indicates efficacy of 30% to 70% or higher protein degradation) | but not when VHL ligand 8304 is co-incubated; also recorded: no degradation is noted | there is degradation of BRD4; also recorded: marked BRD4 degradation | directs degradation of BRD4 as early as 4 h; also recorded: marked BRD4 degradation after 4 h | No degradation is noted | there is no degradation of BRD4 | attenuates CURE-PRO mediated BRD4 degradation; also recorded: No degradation is noted; also recorded: inhibited CURE-PRO mediated degradation; also recorded: inhibits the degradation of BRD4 | 
2 | Cc1ncsc1-c1ccc(CNC(=O)[C@@H]2C[C@@H](O)CN2C(=O)[C@@H](NC(=O)c2cccc(O)c2O)C(C)(C)C)cc1 [compound 8305, (2S,4R)-1-((S)-2-(2,3-dihydroxybenzamido)-3,3-dimethylbutanoyl)-4-hydroxy-N-(4-(4-methylthiazol-5-yl)benzyl)pyrrolidine-2-carboxamide] |  |  |  |  |  |  |  |  |  |  |  | there is no degradation of BRD4 |  | loss of viability only noted at higher concentrations (30 μM); also recorded: Toxicity at higher concentrations
